One may read the IC50 as the point on the concentration scale where inhibition reaches its midpoint.

In patent publication US20260008760A1, “DIPEPTIDYL PEPTIDASE 1 INHIBITORS AND USES THEREOF” (Insmed Incorporated, priority 2024, published 2026) one finds IC50 data, which are given here for 27 compounds.

The target in test [1] is human DPP1 enzyme (Homo sapiens, UniProt P53634). Briefly: Human DPP1 Enzyme IC50 Assay. Also noted: was first proteolytically processed into its mature form using recombinant human cathepsin L; purchased R&D Systems. The format is biochemical. To be noted: activated recombinant human DPP1, 400 μM H-Gly-Arg-AMC, 10 minutes pre-incubation at 37° C., pH 6.0; average of n runs; read-out: Avg. IC50 (Human DPP1 enzyme IC50 value ranges). Here is the method: Example 97. Human DPP1 Enzyme IC50 Assay
Sequence of human DPP1 enzyme (P53634 25-134 limits assumed): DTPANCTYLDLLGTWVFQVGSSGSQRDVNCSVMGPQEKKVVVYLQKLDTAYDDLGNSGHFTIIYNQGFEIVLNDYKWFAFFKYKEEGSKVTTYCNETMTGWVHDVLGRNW
Sequence of human DPP1 enzyme (P53634 231-394 limits assumed): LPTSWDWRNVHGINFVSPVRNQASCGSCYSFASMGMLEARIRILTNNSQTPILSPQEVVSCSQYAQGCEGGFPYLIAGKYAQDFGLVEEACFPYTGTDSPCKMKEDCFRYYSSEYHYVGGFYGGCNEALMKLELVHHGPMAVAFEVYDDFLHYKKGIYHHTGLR
Sequence of human DPP1 enzyme (P53634 395-463 limits assumed): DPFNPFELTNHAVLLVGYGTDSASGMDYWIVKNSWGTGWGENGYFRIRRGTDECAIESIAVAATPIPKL
Recombinant human DPP1 enzyme (R&D Systems; Minneapolis, MN) was first proteolytically processed into its mature form using recombinant human cathepsin L (R&D Systems) in a buffer consisting of 20 mM citric acid pH 4.5, 150 mM NaCl, 1 mM EDTA and 10 mM DTT. Test articles were applied to activated human DPP1 enzyme in Assay Buffer (25 mM MES pH 6.0, 50 mM NaCl, 5 mM DTT) in a total reaction volume of 125 μL. 25 μL of compound in Assay Buffer plus 5% DMSO was first added to 50 μL of activated human DPP1 enzyme at a concentration of 1 ng/μL and allowed to pre-incubate for 10 minutes at 37° C. after which 50 μL of 1000 μM H-Gly-Arg-AMC substrate (Bachem; St. Torrance, CA) was added, giving final substrate concentration of 400 μM and a final DMSO concentration of 1%. Substrate cleavage was measured for 90 minutes at 37° C., with fluorescence at Excitation/Emission 350/450 nm measured every 5 minutes. DPP1 concentration was interpolated based on its activity relative to a standard curve of activated human recombinant DPP1 enzyme. IC50 values for each compound were calculated via the XLFit (IDBS Version 5.3.1.3) Add-On to Microsoft Excel using the four parameter fit equation y={A+[(B−A)]/[1+((C/x)^D)]}, which appears as equation number 205 (4 Parameter Logistic Model or Sigmoidal Dose-Response Model) in XLFit. Default constraints were used for each Parameter. IC50 was defined as the compound concentration at which 50% of enzyme activity was inhibited when compared to the no-compound control.

Test [2] concerns the target DPP1 in HL-60 cells (Homo sapiens, UniProt P53634). Briefly: DPP1 Cell IC50 assay. The test is classed as cell-based. Also noted: host or cells: HL-60 cells. To be noted: 60 min pre-incubation, H-Gly-Phe-AFC substrate, average of n runs, read-out: Avg. IC50 (DPP1 Cell IC50 value ranges). Here is the method: Example 99. DPP1 Cell IC50 assay
HL-60 cells (ATCC; Manassas, VA) were maintained in RPMI-1640 supplemented with 20% heat-inactivated FBS and 1× Antibiotic Antimycotic (Cytiva; Marlborough, MA). Media was changed every three to four days and cells were not allowed to exceed 1×10^6 cells per mL. Prior to assay, cells were collected by centrifugation at 500 rcf for 3 minutes, resuspended in PBS and counted. Cells were diluted in PBS to a concentration of 5×10^5 live cells per mL and transferred to black 96-well plates for assay, 60 μL per well. Test articles were diluted in PBS plus 0.5% DMSO, and 20 μL was added to each assay well. Compound was allowed to pre-incubate with cells with gentle shaking at 100 rpm for 60 minutes at 37° C. in a cell culture incubator maintained at 5% CO2, after which 20 μL of 500 μM H-Gly-Phe-AFC substrate (MP Biomedicals; Solon, OH) was added to each well. Plates were returned to the incubator with shaking at 100 rpm for 30 minutes, after which fluorescence was measured at Excitation/Emission 400/505 nm. % Inhibition was calculated from RFU values compared to control cell wells that received only PBS plus 0.5% DMSO. IC50 values for each compound were calculated via the XLFit (IDBS Version 5.3.1.3) Add-On to Microsoft Excel using the four parameter fit equation y=(A+((B−A)/(1+((C/x)^D)))), which appears as equation number 205 (4 Parameter Logistic Model or Sigmoidal Dose-Response Model) in XLFit. IC50 was defined as the compound concentration at which 50% of enzyme activity was inhibited when compared to the no-compound control.

Bounds are passed on as bounds.

Sequence of DPP1 in HL-60 cells (P53634 25-463): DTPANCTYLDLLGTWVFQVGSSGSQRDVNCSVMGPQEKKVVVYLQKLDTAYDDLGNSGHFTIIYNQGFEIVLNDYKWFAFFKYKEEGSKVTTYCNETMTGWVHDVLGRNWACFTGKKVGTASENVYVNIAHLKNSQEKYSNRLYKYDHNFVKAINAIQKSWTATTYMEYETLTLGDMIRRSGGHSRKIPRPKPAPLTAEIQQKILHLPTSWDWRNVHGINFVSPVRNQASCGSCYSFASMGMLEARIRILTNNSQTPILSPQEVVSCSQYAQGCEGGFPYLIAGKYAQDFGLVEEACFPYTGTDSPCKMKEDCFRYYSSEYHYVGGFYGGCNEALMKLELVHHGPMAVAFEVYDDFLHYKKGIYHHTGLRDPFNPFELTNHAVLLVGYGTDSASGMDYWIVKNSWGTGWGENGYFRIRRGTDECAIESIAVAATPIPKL

Take `CO[C@@H]1CCNC[C@@H](C(=O)NC(C#N)Cc2cnc(-c3ccc4c(F)nn(C)c4c3)s2)OC1` (mixture of isomers) [Compound A38, (2S,7R)—N-{1-cyano-2-[2-(3-fluoro-1-methylindazol-6-yl)-1,3-thiazol-5-yl]ethyl}-7-methoxy-1,4-oxazocane-2-carboxamide]: the IC50 was 5 to 15 nM in test [1] and 1 to 2.5 nM in test [2].

For `N#CC(Cc1cc2c(cc1F)-c1cc(C3COC3)c(F)cc1CO2)NC(=O)[C@@H]1CNCCCCO1` (mixture of isomers) [Compound B10, (2S)—N-{1-cyano-2-[2,8-difluoro-9-(oxetan-3-yl)-6H-benzo[c]chromen-3-yl]ethyl}-1,4-oxazocane-2-carboxamide], the IC50 in test [1] was in the range of 5 to 15 nM; in test [2], 1 to 2.5 nM. For `CO[C@@H]1CCNC[C@@H](C(=O)NC(C#N)Cc2cc3c(cc2F)-c2ccc(C#N)cc2CO3)OC1` (mixture of isomers) [Compound B11, (2S,7R)—N-(1-cyano-2-{8-cyano-2-fluoro-6H-benzo[c]chromen-3-yl}ethyl)-7-methoxy-1,4-oxazocane-2-carboxamide], in that order: below 5 nM and 1 to 2.5 nM.

Regarding `CO[C@H]1CCO[C@H](C(=O)NC(C#N)Cc2cc3c(cc2F)-c2cc(C4COC4)c(F)cc2CO3)CNC1` (mixture of isomers) [Compound B15, (2S,6S)—N-{1-cyano-2-[2,8-difluoro-9-(oxetan-3-yl)-6H-benzo[c]chromen-3-yl]ethyl}-6-methoxy-1,4-oxazocane-2-carboxamide], the IC50 in test [1] was below 5 nM; in test [2] it was 1 to 2.5 nM. Taken in the same sequence, the figures for `Cn1c(=O)oc2ccc3c(c21)COc1cc(CC(C#N)NC(=O)[C@@H]2CNCCCO2)c(F)cc1-3` (mixture of isomers) [Compound C2, (2S)—N-(1-cyano-2-(8-fluoro-3-methyl-2-oxo-3,4-dihydro-2H-benzo[3,4]isochromeno[8,7-d]oxazol-7-yl)ethyl)-1,4-oxazepane-2-carboxamide] were above 15 nM and above 2.5 nM.

For the compound `CN1CCC2(CCc3cc4c(cc32)-c2cc(F)c(CC(C#N)NC(=O)[C@@H]3CNCCCO3)cc2OC4)CC1` (mixture of isomers) [Compound C3, (2S)—N-(1-cyano-2-{2-fluoro-1′-methyl-8,9-dihydro-6H-spiro[indeno[5,6-c]chromene-10,4′-piperidin]-3-yl}ethyl)-1,4-oxazepane-2-carboxamide], the IC50 in test [1] is below 5 nM; in test [2], above 2.5 nM. Consider `Cc1cn2cc(-c3cc4sc(C[C@@H](C#N)NC(=O)[C@@H]5CNCCCCO5)cc4s3)cc2c(C)n1` (single isomer, unassigned) [Compound A30], for which the IC50 is above 15 nM in test [1] and above 2.5 nM in test [2].

For `Cc1cn2cc(-c3cc4sc(C[C@H](C#N)NC(=O)[C@@H]5CNCCCCO5)cc4s3)cc2c(C)n1` (single isomer, unassigned) [Compound A31], the IC50 in test [1] was above 15 nM; in test [2] it was above 2.5 nM. For `CO[C@H]1CCO[C@H](C(=O)N[C@H](C#N)Cc2cc3cc(-c4cc5c(C)nc(C)cn5c4)ccc3s2)CNC1` (single isomer, unassigned) [Compound A45], in that order: above 15 nM and above 2.5 nM.

As to `CO[C@H]1CCO[C@H](C(=O)NC(C#N)Cc2cc3cc(-c4cc5c(C)nc(C)cn5c4)ccc3s2)CNC1` (single isomer, unassigned) [Compound A46], the IC50 in test [1] is above 15 nM; in test [2], above 2.5 nM. Take `CO[C@@H]1CCNC[C@@H](C(=O)N[C@H](C#N)Cc2cc3cc(-c4cc5c(C)nc(C)cn5c4)ccc3s2)OC1` (single isomer, unassigned) [Compound A51]: the values for the IC50 in test [1] and in test [2] were 5 to 15 nM and 1 to 2.5 nM, respectively. For `CO[C@@H]1CCNC[C@@H](C(=O)NC(C#N)Cc2cc3cc(-c4cc5c(C)nc(C)cn5c4)ccc3s2)OC1` (single isomer, unassigned) [Compound A52], in that order: above 15 nM and above 2.5 nM. Turning to `N#Cc1ccc2c(c1)COc1cc(C[C@@H](C#N)NC(=O)[C@@H]3CNCCCCO3)c(F)cc1-2` (single isomer, unassigned) [Compound B8], the IC50 in test [1] is above 15 nM.

On to `N#Cc1ccc(C23CCC(C[C@@H](C#N)NC(=O)[C@@H]4CNCCCO4)(CC2)CC3)cc1` [Compound 1], for which the IC50 in test [1] is above 15 nM.

As for `N#Cc1ccc(C23CC(C[C@@H](C#N)NC(=O)[C@@H]4CNCCCO4)(C2)C3)cc1` [Compound 2], in test [1], the IC50 is above 15 nM. Still for that read-out and setting: as for `N#C[C@H](Cc1ccc(C23CC(C#N)(C2)C3)cc1)NC(=O)[C@@H]1CNCCCO1` [Compound 3], the figure is above 15 nM; as for `N#C[C@H](Cc1ccc(-c2ccnc3nc(O)oc23)cc1)NC(=O)[C@@H]1CNCCCO1` [Compound A13, (2S)—N-[(1S)-1-cyano-2-(4-{2-hydroxy-[1,3]oxazolo[4,5-b]pyridin-7-yl}phenyl)ethyl]-1,4-oxazepane-2-carboxamide], above 15 nM.

For `N#C[C@H](Cc1ccc(-c2cc3c(O)ccnn3c2)cc1)NC(=O)[C@@H]1CNCCCO1` [Compound A15, (S)—N—((S)-1-cyano-2-(4-(4-hydroxypyrrolo[1,2-b]pyridazin-6-yl)phenyl)ethyl)-1,4-oxazepane-2-carboxamide], the IC50 in test [1] is above 15 nM. With `N#C[C@H](Cc1ccc(-c2cnc3[nH]ccc3n2)cc1)NC(=O)[C@@H]1CNCCCO1` [Compound A16, (2S)—N-[(1S)-1-cyano-2-(4-{5H-pyrrolo[2,3-b]pyrazin-2-yl}phenyl)ethyl]-1,4-oxazepane-2-carboxamide], the IC50 in test [1] is above 15 nM. On the same count and under the same terms, as for `N#C[C@H](Cc1ccc(-c2cncc3[nH]c(=O)[nH]c23)cc1)NC(=O)[C@@H]1CNCCCO1` [Compound A17, (2S)—N-[(1S)-1-cyano-2-(4-{2-oxo-1H,3H-imidazo[4,5-c]pyridin-7-yl}phenyl)ethyl]-1,4-oxazepane-2-carboxamide], the figure is above 15 nM; as for `CO[C@H]1CCO[C@H](C(=O)N[C@H](C#N)Cc2cnc(-c3ccc4c(F)nn(C)c4c3)s2)CNC1` [Compound A170], 5 to 15 nM. With `Cn1nc(F)c2ccc(-c3ncc(C[C@@H](C#N)NC(=O)[C@@H]4CNCC[C@@H](F)CO4)s3)cc21` [Compound A172], the IC50 in test [1] is above 15 nM. Take `CN1Cc2cc(F)ccc2-c2ccc(C[C@@H](C#N)NC(=O)[C@@H]3CNCCCO3)cc2C1=O` [Compound B3, (2S)—N-[(1S)-1-cyano-2-{13-fluoro-9-methyl-8-oxo-9-azatricyclo[9.4.0.0^{2,7}1]pentadeca-1(11),2,4,6,12,14-hexaen-5-yl}ethyl]-1,4-oxazepane-2-carboxamide]: in test [1], the IC50 is above 15 nM. The same measure, in the same setting: under `Cn1c(=O)oc2ccc3c(c21)COc1cc(C[C@H](C#N)NC(=O)[C@@H]2CNCCCO2)c(F)cc1-3` [Compound C2-B] stands above 15 nM. For `CN1CCC2(CCc3ccc4c(c32)COc2cc(CC(C#N)NC(=O)[C@@H]3CNCCCO3)c(F)cc2-4)CC1` (stereo partly drawn) [Compound C4, (2S)—N-(1-cyano-2-{8-fluoro-1′-methyl-2,4-dihydro-1H-spiro[indeno[4,5-c]chromene-3,4′-piperidin]-7-yl}ethyl)-1,4-oxazepane-2-carboxamide], the IC50 in test [1] was above 15 nM. Take `CO[C@H]1CCO[C@H](C(=O)N[C@H](C#N)Cc2ccc(-c3ccc4cnn(C5CCN(C)CC5)c4c3)cc2F)CNC1` [Compound H1]: in test [1], the IC50 was below 5 nM. The same measure, in the same setting: as for `CO[C@H]1CCO[C@H](C(=O)N[C@H](C#N)Cc2ccc(-c3ccc4cnn(C5CCN(C6COC6)CC5)c4c3)cc2F)CNC1` [Compound H2], the figure is 5 to 15 nM.
